This note sets out measurements from US10894797B2, “Fused tricyclic ring derivatives as SRC homology-2 phosphatase inhibitors” (Nikang Therapuetics, Inc., priority 2018, dated 2021).

Sequence of SHP2 (Q06124 whole entry, the tested form may be a part): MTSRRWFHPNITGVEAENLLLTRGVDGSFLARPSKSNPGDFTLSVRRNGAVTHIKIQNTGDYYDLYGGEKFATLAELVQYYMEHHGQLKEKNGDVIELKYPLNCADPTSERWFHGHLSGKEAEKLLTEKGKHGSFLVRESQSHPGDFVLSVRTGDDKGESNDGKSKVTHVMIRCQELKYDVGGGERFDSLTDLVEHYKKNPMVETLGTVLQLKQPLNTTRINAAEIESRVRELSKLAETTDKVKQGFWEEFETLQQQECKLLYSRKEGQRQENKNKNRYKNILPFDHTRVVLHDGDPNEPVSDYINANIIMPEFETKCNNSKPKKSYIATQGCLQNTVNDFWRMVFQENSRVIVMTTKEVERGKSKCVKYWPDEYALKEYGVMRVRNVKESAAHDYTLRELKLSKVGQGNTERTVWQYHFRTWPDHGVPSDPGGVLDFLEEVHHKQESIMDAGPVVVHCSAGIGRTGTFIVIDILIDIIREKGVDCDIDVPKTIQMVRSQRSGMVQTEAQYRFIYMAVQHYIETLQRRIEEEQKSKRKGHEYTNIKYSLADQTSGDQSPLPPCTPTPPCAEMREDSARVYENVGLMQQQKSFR

The assay addresses SHP2 (Homo sapiens (Human), UniProt Q06124). Nature of the assay: SHP2 allosteric inhibition assay (DiFMUP substrate, bisphos-IRS1 peptide activation). The assay is classed as biochemical. The note with it: 0.33 nM SHP2, 0.5 μM bisphos-IRS1 peptide, 100 uM DiFMUP, room temperature. The method, then:
At the basal state, SHP2 is auto-inhibited and access of substrates to the catalytic site is blocked by the […] interactions between the SH2 domains and the PTP domain. When bis-tyrosyl-phosphorylated peptides bind to SH2 domain of SHP2, the PTP domain becomes available for substrate recognition and reaction catalysis and SHP2 is allosterically activated. SHP2 catalytic activity can be measured using a fluorogenic artificial substrate DiFMUP.
The phosphatase reactions were carried out at room temperature in 384-well black polystyrene plates (Greiner Bio-One, Cat #784076) using assay buffers containing 60 mM HEPES, pH 7.2, 75 mM NaCl, 75 mM KCl, 1 mM EDTA, 0.05% P-20, and 5 mM DTT.
0.33 nM of SHP2 was co-incubated with of 0.5 μM of bisphos-IRS 1 peptide (sequence: H2N-LN(pY)IDLDLV(dPEG8)LST(pY)ASINFQK-amide) and various concentrations of compounds for 30-60 min at room temperature. Then the reaction was initiated by addition of the surrogate substrate DiFMUP (Invitrogen, Cat #D6567, 100 uM final).
The real-time conversion of DiFMUP to DiFMU (6,8-difluoro-7-hydroxyl-4-methyl-coumarin) was measured every 5 min for 30 min using a microplate reader (CLARIOstar, BMG Labtech) with excitation and emission wavelengths of 340 nm and 450 nm, respectively. Initial reaction rates were determined by linear fitting of the data and the inhibitor dose response curves were analyzed using normalized IC50 regression curve fitting with control-based normalization.
`C[C@@H]1OCC2(CCN(c3ncc(Sc4ccnc5c4OC[C@@H]4C[C@H](F)CN54)nc3CO)CC2)[C@@H]1N` [Compound 3, (3-((3S,4S)-4-amino-3-methyl-2-oxa-8-azaspiro[4.5]decan-8-yl)-6-(((6aS,8S)-8-fluoro-6a,7,8,9-tetrahydro-6H-pyrido[3,2-b]pyrrolo[1,2-d][1,4]oxazin-4-yl)thio)pyrazin-2-yl)methanol]: the IC50 (usually the concentration that inhibits the measured activity by half) came to 13 nM.

Take `C[C@@H]1OCC2(CCN(c3ncc(Sc4ccnc5c4OC[C@@H]4CCCN54)nc3CO)CC2)[C@@H]1N` [Compound 1, (3-((3S,4S)-4-amino-3-methyl-2-oxa-8-azaspiro[4.5]decan-8-yl)-6-(((S)-6a,7,8,9-tetrahydro-6H-pyrido[3,2-b]pyrrolo[1,2-d][1,4]oxazin-4-yl)thio)pyrazin-2-yl)methanol]: half-maximal inhibition (IC50) required 3 nM.

On to `C[C@@H]1OCC2(CCN(c3ncc(Sc4ccnc5c4OC[C@@H]4C[C@@](C)(O)CN54)nc3CO)CC2)[C@@H]1N` (single isomer, unassigned) [Compound 19], for which the “Shp2 IC50(nM)” value is “one of 21 and 22 is 13 and the other is 8”.

As to `COCOC[C@H]1C[C@H]2COc3c(Sc4cnc(N5CCC6(CC5)COC5(CCC5)[C@H]6N)c(CO)n4)ccnc3N2C1` [Compound 39, (3-((S)-5-amino-13-oxa-9-azadispiro[3.1.5^6.2^4]tridecan-9-yl)-6-(((6aS,8S)-8-((methoxymethoxy)methyl)-6a,7,8,9-tetrahydro-6H-pyrido[3,2-b]pyrrolo[1,2-d][1,4]oxazin-4-yl)thio)pyrazin-2-yl)methanol], the IC50 was 7 nM.

`C[C@@H]1OCC2(CCN(c3ncc(Sc4ccnc5c4OC[C@@H]4C[C@H](O)CN54)nc3CO)CC2)[C@@H]1N` [Compound 7, (6aS,8S)-4-((5-((3S,4S)-4-amino-3-methyl-2-oxa-8-azaspiro[4.5]decan-8-yl)-6-(hydroxymethyl)pyrazin-2-yl)thio)-6a,7,8,9-tetrahydro-6H-pyrido[3,2-b]pyrrolo[1,2-d][1,4]oxazin-8-ol] yielded a half-inhibitory concentration (IC50) of 6 nM.

The compound `CO[C@H]1C[C@H]2COc3c(Sc4cnc(N5CCC6(CC5)CO[C@@H](C)[C@H]6N)c(CO)n4)ccnc3N2C1` [Compound 5, (3-((3S,4S)-4-amino-3-methyl-2-oxa-8-azaspiro[4.5]decan-8-yl)-6-(((6aS,8S)-8-methoxy-6a,7,8,9-tetrahydro-6H-pyrido[3,2-b]pyrrolo[1,2-d][1,4]oxazin-4-yl)thio)pyrazin-2-yl)methanol] registered an IC50 of 8 nM.

In turn, `COCOC[C@H]1C[C@H]2COc3c(Sc4ncc(N5CCC6(CC5)Cc5ncccc5[C@H]6N)nc4N)ccnc3N2C1` [Compound 47, (S)-1′-(6-amino-5-(((6aS,8S)-8-((methoxymethoxy)methyl)-6a,7,8,9-tetrahydro-6H-pyrido[3,2-b]pyrrolo[1,2-d][1,4]oxazin-4-yl)thio)pyrazin-2-yl)-5,7-dihydrospiro[cyclopenta[b]pyridine-6,4′-piperidin]-5-amine] gave an IC50 of 8.4 nM.

On to `C[C@@H]1OCC2(CCN(c3ncc(Sc4ccnc5c4OC[C@@H]4C[C@H](COCC6CC6)CN54)nc3CO)CC2)[C@@H]1N` [Compound 33, (3-((3S,4S)-4-amino-3-methyl-2-oxa-8-azaspiro[4.5]decan-8-yl)-6-(((6aS,8S)-8-((cyclopropylmethoxy)methyl)-6a,7,8,9-tetrahydro-6H-pyrido[3,2-b]pyrrolo[1,2-d][1,4]oxazin-4-yl)thio)pyrazin-2-yl)methanol], for which the IC50 was 2.3 nM.

For the compound `COCOC[C@H]1C[C@H]2COc3c(Sc4cnc(N5CCC6(CC5)CO[C@@H](C)[C@H]6N)c(CO)n4)ccnc3N2C1` [Compound 31, (3-((3S,4S)-4-amino-3-methyl-2-oxa-8-azaspiro[4.5]decan-8-yl)-6-(((6aS,8S)-8-((methoxymethoxy)methyl)-6a,7,8,9-tetrahydro-6H-pyrido[3,2-b]pyrrolo[1,2-d][1,4]oxazin-4-yl)thio)pyrazin-2-yl)methanol], 4.2 nM corresponded to half-maximal inhibition (IC50).

As to `C[C@@H]1OCC2(CCN(c3ncc(Sc4ccnc5c4OC[C@@H]4COCCN54)nc3CO)CC2)[C@@H]1N` [Compound 27, (3-((3S,4S)-4-amino-3-methyl-2-oxa-8-azaspiro[4.5]decan-8-yl)-6-(((S)-6a,7,9,10-tetrahydro-6H-[1,4]oxazino[4,3-d]pyrido[3,2-b][1,4]oxazin-4-yl)thio)pyrazin-2-yl)methanol], the “Shp2 IC50(nM)” value was “one of 26 and 27 is 10 and the other is 8”.

`C[C@@H]1OCC2(CCN(c3ncc(Sc4ccnc5c4OC[C@@H]4C[C@H](O[C@H]6CCOC6)CN54)nc3CO)CC2)[C@@H]1N` [Compound 11, (3-((3S,4S)-4-amino-3-methyl-2-oxa-8-azaspiro[4.5]decan-8-yl)-6-(((6aS,8S)-8-(((S)-tetrahydrofuran-3-yl)oxy)-6a,7,8,9-tetrahydro-6H-pyrido[3,2-b]pyrrolo[1,2-d][1,4]oxazin-4-yl)thio)pyrazin-2-yl)methanol] registered an IC50 of 14 nM.

As to `COCOC[C@H]1C[C@H]2COc3c(Sc4nc(CO)c(N5CCC6(CC5)CO[C@@H](C)[C@H]6N)nc4C)ccnc3N2C1` [Compound 49, (3-((3S,4S)-4-amino-3-methyl-2-oxa-8-azaspiro[4.5]decan-8-yl)-6-(((6aS,8S)-8-((methoxymethoxy)methyl)-6a,7,8,9-tetrahydro-6H-pyrido[3,2-b]pyrrolo[1,2-d][1,4]oxazin-4-yl)thio)-5-methylpyrazin-2-yl)methanol], it took 12 nM to reach half-maximal inhibition (IC50).

As to `COCOCOC[C@H]1C[C@H]2COc3c(Sc4cnc(N5CCC6(CC5)CO[C@@H](C)[C@H]6N)c(CO)n4)ccnc3N2C1` [Compound 40, (3-((3 S,4S)-4-Amino-3-methyl-2-oxa-8-azaspiro[4.5]decan-8-yl)-6-(((6aS,8S)-8-(((methoxymethoxy)methoxy)methyl)-6a,7,8,9-tetrahydro-6H-pyrido[3,2-b]pyrrolo[1,2-d][1,4]oxazin-4-yl)thio)pyrazin-2-yl)methanol], the IC50 was 5.9 nM.

Turning to `COC[C@@H]1C[C@H]2COc3c(Sc4cnc(N5CCC6(CC5)Cc5ncccc5[C@H]6N)c(CO)n4)ccnc3N2C1` [Compound 37, (3-((S)-5-amino-5,7-dihydrospiro[cyclopenta[b]pyridine-6,4′-piperidin]-1′-yl)-6-(((6aS,8R)-8-(methoxymethyl)-6a,7,8,9-tetrahydro-6H-pyrido[3,2-b]pyrrolo[1,2-d][1,4]oxazin-4-yl)thio)pyrazin-2-yl)methanol], the “Shp2 IC50(nM)” value was “One of 36 and 37 is 2.7 and the other is 4.2”.

`COC[C@H]1C[C@H]2COc3c(Sc4cnc(N5CCC6(CC5)CO[C@@H](C)[C@H]6N)cn4)ccnc3N2C1` [Compound 43, (3S,4S)-8-(5-(((6aS,8S)-8-(methoxymethyl)-6a,7,8,9-tetrahydro-6H-pyrido[3,2-b]pyrrolo[1,2-d][1,4]oxazin-4-yl)thio)pyrazin-2-yl)-3-methyl-2-oxa-8-azaspiro[4.5]decan-4-amine] gave an IC50 of 4.5 nM.

Consider `C[C@@H]1OCC2(CCN(c3ncc(Sc4ccnc5c4OC[C@@H]4C[C@H](CO)CN54)nc3CO)CC2)[C@@H]1N` [Compound 41, (3-((3S,4S)-4-amino-3-methyl-2-oxa-8-azaspiro[4.5]decan-8-yl)-6-(((6aS,8S)-8-(hydroxymethyl)-6a,7,8,9-tetrahydro-6H-pyrido[3,2-b]pyrrolo[1,2-d][1,4]oxazin-4-yl)thio)pyrazin-2-yl)methanol], for which the IC50 was found to be 5 nM.

`COCOC[C@H]1C[C@@H]2COc3c(Sc4cnc(N5CCC6(CC5)CO[C@@H](C)[C@H]6N)c(CO)n4)ccnc3N2C1` [Compound 51, (3-((3S,4S)-4-amino-3-methyl-2-oxa-8-azaspiro[4.5]decan-8-yl)-6-(((6aR,8S)-8-((methoxymethoxy)methyl)-6a,7,8,9-tetrahydro-6H-pyrido[3,2-b]pyrrolo[1,2-d][1,4]oxazin-4-yl)thio)pyrazin-2-yl)methanol]: the midpoint of inhibition, the IC50, lay at 4.9 nM.

Turning to `C[C@@H]1OCC2(CCN(c3ncc(Sc4ccnc5c4OC[C@@H]4C[C@@H](n6cccn6)CN54)nc3CO)CC2)[C@@H]1N` [Compound 25, (6-(((6aS,8R)-8-(1H-pyrazol-1-yl)-6a,7,8,9-tetrahydro-6H-pyrido[3,2-b]-pyrrolo[1,2-d][1,4]oxazin-4-yl)thio)-3-((3 S,4S)-4-amino-3-methyl-2-oxa-8-azaspiro[4.5]decan-8-yl)pyrazin-2-yl)methanol], the 50% inhibitory concentration (IC50) turned out to be 11 nM.

`C[C@@H]1OCC2(CCN(c3ncc(Sc4ccnc5c4OC[C@@H]4C[C@H](O[C@@H]6CCOC6)CN54)nc3CO)CC2)[C@@H]1N` [Compound 12, (3-((3S,4S)-4-amino-3-methyl-2-oxa-8-azaspiro[4.5]decan-8-yl)-6-(((6aS,8S)-8-(((R)-tetrahydrofuran-3-yl)oxy)-6a,7,8,9-tetrahydro-6H-pyrido[3,2-b]pyrrolo[1,2-d][1,4]oxazin-4-yl)thio)pyrazin-2-yl)methanol]: the IC50 worked out at 12 nM.

`COCOC[C@H]1C[C@H]2COc3c(Sc4cnc(N5CCC6(CC5)Cc5ncccc5[C@H]6N)c(CO)n4)ccnc3N2C1` [Compound 48, (3-((S)-5-amino-5,7-dihydrospiro[cyclopenta[b]pyridine-6,4′-piperidin]-1′-yl)-6-(((6aS,8S)-8-((methoxymethoxy)methyl)-6a,7,8,9-tetrahydro-6H-pyrido[3,2-b]pyrrolo-[1,2-d][1,4]oxazin-4-yl)thio)pyrazin-2-yl)methanol] yielded a half-inhibitory concentration (IC50) of 3.3 nM.
